From article PMC11279551, “Pharmacokinetics and Enterohepatic Circulation of 2-(Quinoline-8-carboxamido)benzoic Acid (2-QBA) in Mice” (Pharmaceutics, 2024)
Converted amounts (≈) assume the structure as drawn. Like-named read-outs stand apart in the source and are kept apart here.

Key:
Water solubility = type: physicochemical; details: n = 4
[1] = Urinary and fecal excretion after IV or PO administration (metabolic cage); type: in vivo; details: mice, IV 1.0 mg/kg
Protocol: We also investigated the excretion profile of 2-QBA after IV and PO administration at doses of 1 mg/kg for IV and 2 mg/kg for PO. After IV or PO administration of 2-QBA, the mice were returned to a metabolic cage to collect the urine and feces samples. The urine and feces samples were collected during the periods of 0–24 h, 24–48 h, 48–72 h, and 72–96 h. The urine ball was washed using equal volumes of methanol and added to the urine samples. The fecal samples were homogenized with 9 volumes of water to yield 10% fecal homogenates. The aliquots (30 μL) of urine and 10% fecal homogenate samples were stored at −80 °C until the analysis of the 2-QBA. For the analysis of the 2-QBA, 120 μL of IS solution was added to the 30 μL aliquot of urine and 10% fecal homogenate samples. The mixture was vigorously vortexed for 5 min and then centrifuged at 13,000× g for 5 min. The supernatant was transferred to autosampler vials. Subsequently, a 3 μL aliquot was injected into the LC-MS/MS system.
WinNonlin 5.1 software (Pharsight Co., Mountain View, CA, USA) was used to calculate the pharmacokinetic parameters. AUClast and AUCinf indicate the areas under the plasma concentration curve from 0 h to the last sample and from 0 h to infinity, respectively; these were estimated using the linear trapezoidal method. T1/2 is the elimination half-life, which is estimated from the elimination coefficient (k) (i.e., 0.693/k), and MRT is the mean residence time. CL is the total clearance, which is calculated by dividing the dose by AUCinf. Vdss is the volume of the distribution at a steady state, calculated from MRTxCL. CLrenal and CLfeces are calculated by dividing the amount excreted in urine and feces by the AUCinf, respectively. CLmetabolism is calculated by subtracting CLrenal and CLfeces from CL. […] BA is calculated by dividing the dose-normalized AUCinf for PO administration (AUCinf/PO dose) by the dose-normalized AUCinf for IV administration (AUCinf/IV dose). All data are expressed as the mean ± standard deviation (SD).

[2] = Effect of activated charcoal (AC) on the pharmacokinetics of 2-QBA; type: in vivo; details: mice; for AUC(0-t): read-out: AUC24h
Protocol: To elucidate the reabsorption mechanism of 2-QBA, a pharmacokinetic study of 2-QBA was conducted with activated charcoal (AC) administered PO. Male ICR mice (7 weeks old, 25–30 g) were fasted for 14–16 h prior to the administration of 2-QBA.
In total, […] were administered 2-QBA (1 mg/kg/3 mL) via the tail vein. Two hours after the 2-QBA dosing, AC (0.8 g/kg/5 mL in distilled water) or a vehicle (5 mL/kg distilled water) was administrated via oral gavage. Each group included ten mice who were randomly divided into two groups for sparse sampling. Blood collection was performed at 0.083, 0.5, 2, and 8 h from 5 mice and at 0.25, 1, 4, and 24 h from another 5 mice, as described previously. Four mice treated with either AC (0.8 g/kg) or the vehicle 2 h after the 2-QBA IV dosing (1 mg/kg) were returned to a metabolic cage to collect the urine and feces samples. The urine and feces samples were collected for 72 h.
Next, 2-QBA was administered PO (2 mg/kg/5 mL) with or without AC (0.8 g/kg in 3 mL of DW), which was administered via oral gavage 2 h after the 2-QBA dosing. Each group included eight mice who were randomly divided into two groups for sparse sampling. Blood collection was performed at 0.25, 0.75, 2, and 8 h from 4 mice and at 0.5, 1, 4, and 24 h from another 4 mice, as described previously. Four mice treated with either AC (0.8 g/kg) or vehicle 2 h after the 2-QBA PO dosing (2 mg/kg) were returned to a metabolic cage to collect the urine and feces samples. The urine and feces samples were collected for 72 h.
Aliquots of plasma samples (30 μL) were added to 120 μL of IS solution. The mixture was vigorously vortexed for 5 min and then centrifuged at 13,000× g for 5 min. The supernatant was transferred to autosampler vials. Subsequently, a 3 μL aliquot was injected into the LC-MS/MS system. Aliquots (30 μL) of urine and 10% feces homogenate samples were added to 60 μL of 150 mM sodium acetate buffer (pH 5.0) in the presence or absence of β-glucuronidase (900 unit) at 37 °C for 2 h. The reaction was quenched by adding four volumes of ice-cold IS solution. The mixture was vigorously vortexed for 5 min, followed by centrifugation at 13,000× g for 5 min. The supernatant was transferred to autosampler vials and subsequently a 3 μL aliquot was injected into the LC-MS/MS system.
WinNonlin 5.1 software (Pharsight Co., Mountain View, CA, USA) was used to calculate the pharmacokinetic parameters. AUClast and AUCinf indicate the areas under the plasma concentration curve from 0 h to the last sample and from 0 h to infinity, respectively; these were estimated using the linear trapezoidal method. T1/2 is the elimination half-life, which is estimated from the elimination coefficient (k) (i.e., 0.693/k), and MRT is the mean residence time. CL is the total clearance, which is calculated by dividing the dose by AUCinf. Vdss is the volume of the distribution at a steady state, calculated from MRTxCL. CLrenal and CLfeces are calculated by dividing the amount excreted in urine and feces by the AUCinf, respectively. CLmetabolism is calculated by subtracting CLrenal and CLfeces from CL. Cmax and Tmax are the maximum plasma concentration and time to reach Cmax, respectively. BA is calculated by dividing the dose-normalized AUCinf for PO administration (AUCinf/PO dose) by the dose-normalized AUCinf for IV administration (AUCinf/IV dose). All data are expressed as the mean ± standard deviation (SD).

[3] = male, ICR, mouse, plasma, iv, 1 mg/kg, IV 1 mg/kg, AC (0.8 g/kg)
[4] = male, ICR, mouse, plasma, iv, 1 mg/kg, IV 1 mg/kg, Control
[5] = male, ICR, mouse, plasma, po, 2 mg/kg, PO 2 mg/kg, AC (0.8 g/kg)
[6] = male, ICR, mouse, plasma, po, 2 mg/kg, PO 2 mg/kg, Control

solubility (Water solubility): 35.6 ± 2.71 µg/mL (≈ 122 µM)
CL renal ([1]; male, ICR, mouse, urine): 5.47 ± 2.22 mL/min/kg
Amount excreted in feces for 96 h ([1]; parent form): 9.30 ± 6.17 % of dose
Amount excreted in urine for 96 h ([1]; parent form): 13.8 ± 4.24 % of dose
AUC(0-t) ([2]; male, ICR, mouse, plasma, intravenous, 1 mg/kg, IV 1 mg/kg, AC (0.8 g/kg) PO 2 h after dosing): 1180 ± 264 ng·h/mL
AUC(0-inf) [2, 3]: 1210 ± 293 ng·h/mL
MRT [2, 3]: 2.48 ± 2.56 h
clearance [2, 3]: 14.5 ± 3.95 mL/min/kg
half-life [2, 3]: 3.18 ± 2.52 h
AUC(0-inf) [2, 4]: 1330 ± 422 ng·h/mL
MRT [2, 4]: 2.88 ± 1.14 h
clearance [2, 4]: 13.9 ± 5.41 mL/min/kg
half-life [2, 4]: 3.88 ± 1.72 h
AUC(0-t) ([2]; male, ICR, mouse, plasma, iv, 1 mg/kg, IV 1 mg/kg, Control (vehicle 2 h after dosing)): 1270 ± 361 ng·h/mL
AUC(0-inf) [2, 5]: 836 ± 209 ng·h/mL
MRT [2, 5]: 7 ± 2.48 h
half-life [2, 5]: 5.5 ± 2.24 h
Cmax ([2]; male, ICR, mouse, plasma, po, 2 mg/kg, PO 2 mg/kg, AC (0.8 g/kg) 2 h after dosing): 315 ± 106 ng/mL
AUC(0-t) [2, 5]: 650 ± 305 ng·h/mL
AUC(0-inf) [2, 6]: 2110 ± 608 ng·h/mL
Cmax [2, 6]: 399 ± 90.7 ng/mL
MRT [2, 6]: 8.49 ± 3.08 h
half-life [2, 6]: 6.05 ± 2.04 h
AUC(0-t) [2, 6]: 1930 ± 453 ng·h/mL
Tmax ([2]; male, ICR, mouse, plasma, PO 2 mg/kg, Control): 0.25 h
BA ([2]; PO 2 mg/kg, AC (0.8 g/kg)): 34.5%
BA ([2]; PO 2 mg/kg, Control): 79.8%
SMILES: O=C(O)c1ccccc1NC(=O)c1cccc2cccnc12 [2-QBA, 2-(quinoline-8-carboxamido)benzoic acid]
